# According to patent US20260184712A1, “Heterocyclic Compounds as ENT Inhibitors and Compounds for Use in the Treatment of Cancers” (iTeos Belgium SA, priority 2022, published 2026):
# What was measured:
# [1] = tested on: stimulated primary human T cells; test: T cell proliferation assay, Condition B (X-VIVO15, 2% HSA and 0.1% AAG); type: cell-based; settings: Homo sapiens, T-cell, 96 h; Condition B: X-VIVO15 medium containing HSA and α1-Acid Glycoprotein; anti-CD3/anti-CD28 beads, ATP, 4 days; CFSE-lo T cells
# In short: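 CFSE-labelled CD3+ T cells from healthy donors (2×10^4/well) in X-VIVO15 with 2% HSA and 0.1% AAG were stimulated with anti-CD3/CD28 beads. After 30 min pre-incubation with inhibitor, ATP was added and cells were cultured 4 days at 37° C. Flow cytometry gave % CFSE^lo cells, with IC50/IC90 and pICF from curve fits.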
# Human ENT2 = target: T1, Human ENT2 (Homo sapiens, UniProt Q14542); test: Adenosine uptake assay, ENT2-mediated transport in MDCKII cells; type: cell-based; settings: MDCKIIENT2-LV cells, probe adenosine 0.5 μM, pre-incubation 30 min, incubation 10 min
# T1 construct: expressed in transfected cells
# T1 sequence (Q14542 1-456): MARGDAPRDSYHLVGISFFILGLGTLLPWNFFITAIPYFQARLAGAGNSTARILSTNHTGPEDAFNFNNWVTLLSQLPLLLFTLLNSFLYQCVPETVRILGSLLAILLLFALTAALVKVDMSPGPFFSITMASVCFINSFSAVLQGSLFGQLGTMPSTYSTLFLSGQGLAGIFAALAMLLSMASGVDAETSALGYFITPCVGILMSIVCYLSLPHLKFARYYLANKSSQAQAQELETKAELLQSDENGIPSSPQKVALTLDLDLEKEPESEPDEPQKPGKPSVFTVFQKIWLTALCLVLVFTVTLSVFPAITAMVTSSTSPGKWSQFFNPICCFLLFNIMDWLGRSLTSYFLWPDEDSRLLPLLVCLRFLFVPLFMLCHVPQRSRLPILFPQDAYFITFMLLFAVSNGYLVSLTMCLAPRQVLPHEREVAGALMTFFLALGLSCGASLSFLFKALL
# Procedure: The goal of this study was to determine the potency and selectivity of ENT1 inhibitors by measuring ENT1 and ENT2-mediated transport using an in vitro cellular uptake assay.
# Human ENT1 and ENT2 transporters were stably expressed in Madin-Darby Canine Kidney II (MDCKII) cells via transduction. Cell lines overexpressing the relevant ENT1 or ENT2 molecules were preincubated with a dose range of the relevant compound for 30 minutes before introduction of the specific substrate at the concentration indicated in the Table assay parameters below. The transporter assay was conducted for the time specified in the Table assay parameters before the specific uptake of the substrate into the cells was quantified. Specific uptake was determined by comparing the uptake from the cells treated with the relevant compounds and the uptake by cells not overexpressing the transporter in question.
# Specific uptake for each concentration of the test sample was normalized to the DMSO control value to generate a relative accumulation value (or relative transporter activity). Data were plotted against the log molar concentration of the test reagent used. IC50 values were generated with Prism version 9.4.1 and the following function: log(inhibitor) vs. response—Variable slope (four parameters).
SMILES,IC50 (Human ENT2) [nM],IC50 [1] [nM]
C[C@H]1O[C@@H](n2cnc3c(N4CCc5ccc([N+](=O)[O-])cc5C4)ncnc32)[C@H](O)[C@@H]1O [Compound 151],> 1000,20 to 500
C[C@H]1O[C@@H](n2cnc3c(OCc4ccc([N+](=O)[O-])cc4)ncnc32)[C@H](O)[C@@H]1O [Compound 166],> 1000,20 to 500
C[C@H]1O[C@@H](n2cnc3c(OCc4ccc(OC(F)F)cc4)ncnc32)[C@H](O)[C@@H]1O [Compound 173],> 1000,20 to 500
OCCOC[C@H]1O[C@@H](n2cnc3c(OCc4ccc(OC(F)(F)F)cc4)ncnc32)[C@H](O)[C@@H]1O [Compound 175],> 1000,20 to 500

# Continued, in another order:
IC50 (Human ENT2) [nM],SMILES,IC50 [1] [nM]
20 to 1000,C[C@H]1O[C@@H](n2c(NC3CCCC3)nc3c(OCc4ccc([N+](=O)[O-])cc4)ncnc32)[C@H](O)[C@@H]1O [Compound 6],1 to 20
> 1000,C[C@H]1O[C@@H](n2c(NC3CCC(O)CC3)nc3c(OCc4ccc([N+](=O)[O-])cc4)ncnc32)[C@H](O)[C@@H]1O (some centres unmarked) [Compound 28],1 to 20
20 to 1000,C[C@H]1O[C@@H](n2c(NC3CCOCC3)nc3c(OCc4ccc(C#N)cc4)ncnc32)[C@H](O)[C@@H]1O [Compound 73],20 to 500
20 to 1000,C[C@H]1O[C@@H](n2c(NC3CCOCC3)nc3c(OCc4ccc(OC(F)F)nc4)ncnc32)[C@H](O)[C@@H]1O [Compound 75],20 to 500
20 to 1000,C[C@H]1O[C@@H](n2c(N[C@H]3CCC(F)(F)C3)nc3c(OCc4ccc(C#N)cc4)ncnc32)[C@H](O)[C@@H]1O [Compound 82],20 to 500
> 1000,C[C@H]1O[C@@H](n2cnc3c(SCc4ccc([N+](=O)[O-])cc4)ncnc32)[C@H](O)[C@@H]1O [Compound 147],20 to 500
